Like-named read-outs stand apart in the source and are kept apart here. Where a SMILES comes first, the peptide text is derived from it.
What was measured:
mtOXPHOS transcripts = format: cell-based, mouse
nuOXPHOS transcripts = format: cell-based, mouse
reactive oxygen species = format: cell-based, mouse
cytochrome c = format: cell-based, mouse
[1] = test system: cellular dehydrogenase activity
OXPHOS gene expression = format: cell-based, mouse
[2] = test system: mitochondrial membrane potential; format: cell-based, mouse
[3] = composite Z-score vs DMSO wells, Conc 20 μM
[4] = composite Z-score vs mock-treated (DMSO) wells, Conc 20 μM
[5] = normalized composite Z-score vs mock-treated (DMSO) wells, Conc 20 μM
[6] = composite Z-score vs mock-treated (DMSO) wells, concentration of each compound in μM
[7] = 20 μM, composite Z-score vs DMSO
[8] = Table 7, C2C12 myotubes, 48 h, composite Z-score
[9] = composite Z-score vs DMSO, Conc 15.08 μM
[10] = composite Z-score vs DMSO, Conc 20 μM
[11] = Conc 20 μM, normalized score vs mock-treated (DMSO) wells

Chain of cytochrome c (P62897 whole entry): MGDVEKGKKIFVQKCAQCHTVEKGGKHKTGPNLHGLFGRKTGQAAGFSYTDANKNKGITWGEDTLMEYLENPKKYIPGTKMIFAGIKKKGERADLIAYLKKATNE

O=C(O)CN(CC(=O)O)Cc1cc2c(cc1O)Oc1cc(O)c(CN(CC(=O)O)CC(=O)O)cc1C21OC(=O)c2ccccc21 [calcein]
mitoOX (mtOXPHOS transcripts; [3]): −0.829
nucOX (nuOXPHOS transcripts; [3]): −0.468
ROS (reactive oxygen species; [3]): 11.668
cyt c (cytochrome c; [3]): 0.465
Viability (C2C12 myotubes; [3]): 5.567
MTT [1, 3]: −0.243
GE-HTS (OXPHOS gene expression; [3]): −0.625
ΔΨm [2, 3]: −3.437

CC(C)=CCc1c(O)cc2oc(C)cc(=O)c2c1O [peucenin]
mitoOX (mtOXPHOS transcripts; [4]): 0.361
nucOX (nuOXPHOS transcripts; [4]): 0.051
ROS (reactive oxygen species; [4]): −0.014
cyt c (cytochrome c; [4]): 0.494
Viability (C2C12 myotubes; [4]): −0.906
MTT [1, 4]: −1.695
GE-HTS (OXPHOS gene expression; [4]): 0.148
ΔΨm [2, 4]: −0.057

NCCCC(=O)O [gamma-aminobutyric acid]
mitoOX (mtOXPHOS transcripts; [3]): −0.693
nucOX (nuOXPHOS transcripts; [3]): 0.212
ROS (reactive oxygen species; [3]): 0.209
cyt c (cytochrome c; [3]): −0.038
Viability (C2C12 myotubes; [3]): 1.043
MTT [1, 3]: −0.777
GE-HTS (OXPHOS gene expression; [3]): −0.119
ΔΨm [2, 3]: 0.550

muurolladie-3-one
mitoOX (mtOXPHOS transcripts; [5]): −0.569
nucOX (nuOXPHOS transcripts; [5]): −0.745
ROS (reactive oxygen species; [5]): −0.490
cyt c (cytochrome c; [5]): −0.234
Viability (C2C12 myotubes; [5]): −0.720
MTT [1, 5]: −1.161
GE-HTS (OXPHOS gene expression; [5]): −0.747
ΔΨm [2, 5]: 0.063

COc1cc2occ(-c3cc4c(cc3OC)OCO4)c(=O)c2cc1OC [milldurone]
mitoOX (mtOXPHOS transcripts; [6]): −0.215
nucOX (nuOXPHOS transcripts; [6]): 0.605
ROS (reactive oxygen species; [6]): 0.680
cyt c (cytochrome c; [6]): 0.465
Viability (C2C12 myotubes; [6]): −0.401
MTT [1, 6]: −0.713
GE-HTS (OXPHOS gene expression; [6]): 0.343
ΔΨm [2, 6]: −0.569

Cc1onc(-c2ccccc2Cl)c1C(=O)N[C@@H]1C(=O)N2[C@@H]1SC(C)(C)[C@@H]2C(=O)O [cloxacillin]
mitoOX (mtOXPHOS transcripts; [7]): −0.508
nucOX (nuOXPHOS transcripts; [7]): −0.506
ROS (reactive oxygen species; [7]): 0.259
cyt c (cytochrome c; [7]): 0.459
Viability (C2C12 myotubes; [7]): −0.395
MTT [1, 7]: −1.769
GE-HTS (OXPHOS gene expression; [7]): −0.568
ΔΨm [2, 7]: −0.339

COc1cc2c(cc1OC)[C@@H]1C(=O)c3ccc(OC)c(CC=C(C)C)c3O[C@@H]1CO2 [rotenonic acid, methyl ether]
mitoOX (mtOXPHOS transcripts; [4]): −4.305
nucOX (nuOXPHOS transcripts; [4]): −1.024
ROS (reactive oxygen species; [4]): −3.513
cyt c (cytochrome c; [4]): −3.644
Viability (C2C12 myotubes; [4]): 0.582
MTT [1, 4]: −3.898
GE-HTS (OXPHOS gene expression; [4]): −2.268
ΔΨm [2, 4]: −3.751

COc1ccc(C[C@H]2NC[C@H](O)[C@H]2OC(C)=O)cc1 [Anisomycin, reference compound]
mito-OXPHOS Z (mtOXPHOS transcripts; [8]): −3.55
mitoOX (mtOXPHOS transcripts; [9]): −3.545
nucOXPHOS Z (nuOXPHOS transcripts; [8]): 1.26
nucOX (nuOXPHOS transcripts; [9]): 1.256
nuOXPHOS expression (nuOXPHOS transcripts; screen, relative to mtOXPHOS, in words): preferentially increase
ROS (reactive oxygen species; [9]): −2.958
cyt c (cytochrome c; [9]): −2.841
Viability (C2C12 myotubes; [9]): −2.835
MTT [1, 9]: −4.623
GE-HTS (OXPHOS gene expression; [9]): −0.353
ΔΨm [2, 9]: −1.537

CC(C)C[C@H](N)C(=O)N[C@@H](C)C(=O)O [L-leucyl-L-alanine] (H-Leu-Ala-OH)
mitoOX (mtOXPHOS transcripts; [10]): 0.093
nucOX (nuOXPHOS transcripts; [10]): 0.465
ROS (reactive oxygen species; [10]): 0.301
cyt c (cytochrome c; [10]): −0.861
Viability (C2C12 myotubes; [10]): −0.600
MTT [1, 10]: −0.320
GE-HTS (OXPHOS gene expression; [10]): 0.365
ΔΨm [2, 10]: −0.307

NCCC(=O)c1ccccc1N [kynuramine]
mitoOX (mtOXPHOS transcripts; [5]): 0.045
nucOX (nuOXPHOS transcripts; [5]): 0.093
ROS (reactive oxygen species; [5]): 1.180
cyt c (cytochrome c; [5]): 1.161
Viability (C2C12 myotubes; [5]): 0.319
MTT [1, 5]: −1.264
GE-HTS (OXPHOS gene expression; [5]): 0.070
ΔΨm [2, 5]: −0.127

CC1CCC23CCC4(C)C5(C)CCC6C(C)(C)C(=O)CCC6(C)C5CCC4(OC2=O)C3C1C (stereo not drawn) [3-oxoursan (28-13)olide]
mitoOX (mtOXPHOS transcripts; [5]): −1.205
nucOX (nuOXPHOS transcripts; [5]): −1.228
ROS (reactive oxygen species; [5]): 1.010
cyt c (cytochrome c; [5]): 0.991
Viability (C2C12 myotubes; [5]): 0.638
MTT [1, 5]: −1.871
GE-HTS (OXPHOS gene expression; [5]): −1.322
ΔΨm [2, 5]: −0.332

CC(=O)Oc1cc(OC(C)=O)c2c(c1)O[C@H](c1ccc(OC(C)=O)c(OC(C)=O)c1)[C@@H](OC(C)=O)C2 [catechin pentaacetate]
mitoOX (mtOXPHOS transcripts; [5]): 0.161
nucOX (nuOXPHOS transcripts; [5]): 0.314
ROS (reactive oxygen species; [5]): −1.649
cyt c (cytochrome c; [5]): 0.425
Viability (C2C12 myotubes; [5]): 0.652
MTT [1, 5]: −1.126
GE-HTS (OXPHOS gene expression; [5]): 0.269
ΔΨm [2, 5]: −2.799

NCCNC(=O)c1ccc(Cl)cc1 [N-(2-aminoethyl)-4-chlorobenzamide]
mitoOX (mtOXPHOS transcripts; [3]): −0.205
nucOX (nuOXPHOS transcripts; [3]): 0.175
ROS (reactive oxygen species; [3]): 1.036
cyt c (cytochrome c; [3]): −0.423
Viability (C2C12 myotubes; [3]): −1.090
MTT [1, 3]: −0.669
GE-HTS (OXPHOS gene expression; [3]): 0.065
ΔΨm [2, 3]: −1.051

CN(C)C(=S)SSC(=S)N(C)C [thiram]
mitoOX (mtOXPHOS transcripts; [7]): −1.220
nucOX (nuOXPHOS transcripts; [7]): −2.770
ROS (reactive oxygen species; [7]): −3.915
cyt c (cytochrome c; [7]): −4.853
Viability (C2C12 myotubes; [7]): −5.812
MTT [1, 7]: −6.222
GE-HTS (OXPHOS gene expression; [7]): −2.420
ΔΨm [2, 7]: −4.011

C[N+](C)(C)CCCCCC[N+](C)(C)C [hexamethonium bromide]
mitoOX (mtOXPHOS transcripts; [3]): −0.442
nucOX (nuOXPHOS transcripts; [3]): −0.806
ROS (reactive oxygen species; [3]): 0.176
cyt c (cytochrome c): −0.284
cyt c (cytochrome c; [3]): 0.087
Viability (C2C12 myotubes; [3]): −0.378
MTT [1, 3]: −1.179
GE-HTS (OXPHOS gene expression; [3]): −0.735
ΔΨm [2, 3]: −0.602

CS(=O)(=O)CCCCN=C=S [erysolin]
mitoOX (composite Z-score) (mtOXPHOS transcripts; [11]): −0.862
nucOX (composite Z-score) (nuOXPHOS transcripts; [11]): −0.850
ROS (composite Z-score) (reactive oxygen species; [11]): −2.871
cyt c (composite Z-score) (cytochrome c; [11]): −1.868
Viability (composite Z-score) (C2C12 myotubes; [11]): −4.103
MTT (composite Z-score) [1, 11]: −3.551
GE-HTS (composite Z-score) (OXPHOS gene expression; [11]): −0.913
ΔΨm (composite Z-score) [2, 11]: −0.785

Reference: US20090143279A1 (priority 2007, published 2009)
